From patent publication US20110200993A1, “NEW TREATMENT OF AUTOIMMUNE CONDITIONS” (priority 2007, published 2011) come the findings set out here.

In the assay the test system is system A transporters (including Slc38A1). The assay can be described thus: Effect of blocking system A transport on arthritis in mice. The format is in vivo. An excerpt: FIG. 3 is a graph showing the effect of blocking the system A transporters (including Slc38A1) on (A) mean arthritis score and (B) anti collagen antibody production. P=<0.05, n=20.
This confirms that disease susceptibility can be changed both by increased and decreased transporter activity.

Consider `CNC(C)(C)C(=O)O` [MeAIB], for which the arthritis susceptibility result is recorded as “increases arthritis susceptibility”.
